From patent publication US7786045B2, “Aryl ether compounds and their preparation and use thereof” (Sinochem Corporation, priority 2005, dated 2010) come the findings set out here.

The test system of assay [1] is cucumber downy mildew (Pseudoperonospora cubenis). The assay can be described thus: Whole-plant fungicidal test, cucumber downy mildew. Type of assay: in vivo, Pseudoperonospora cubensis.
The test system of assay [2] is wheat powdery mildew (BLumeria graminis). Kind of assay: Whole-plant fungicidal test, protectant activity, wheat powdery mildew. The class given is in vivo. Particulars: for control against wheat powdery mildew: 500 mg/L.
The test system of assay [3] is green peach aphids (Myzus persicae). The assay can be described thus: Insecticidal activity, green peach aphids, spraying. Conditions: 200 mg/L; mortality after two days.
Method: (§1) Determination of insecticidal and acaricidal activities of selected compounds were carried out by following procedure:
(§2) Technical samples were dissolved in mixed solvent (acetone:methanol=1:1), and diluted to required concentration with water containing 0.1% of tween 80.
(§3) The second instar larvae of armyworm (Leucania separata), diamond backmoth (Plutella xylostella) and culex mosquitoes (Culex pipiens pallens), green peach aphids (Myzus persicae) and mite (Tetranychus cinnabarinus) were used in biological test. The method was employed either spraying by airbrush or immersing (larvae of culex mosquitoes). A test solution (0.5 mL) was sprayed at the pressure of 10 psi (about 0.7 kg/cm^2). Percent mortality was determined after two days.
For assay [4], the system named is cucumber grey mold (Botrytis cinerea). The assay can be described thus: Whole-plant fungicidal test, cucumber grey mold. Type of assay: in vivo. Particulars: 500 mg/L.
For assay [5], the system named is cucumber scab (Cladosporium cucumerinum). Kind of assay: Whole-plant fungicidal test, cucumber scab. The class given is in vivo. Particulars: in words.
Assay [6] concerns rice sheath blight (Rhizoctonia solani). The assay can be described thus: Whole-plant fungicidal test, protectant activity, rice sheath blight. Type of assay: in vivo.
Assay [7] deals with wheat head blight (Fusarium graminearum). The class given is in vivo. Particulars: in words.
In assay [8] the test system is tomato cercospora leaf mold (Fulvia fulva). Kind of assay: Whole-plant fungicidal test, tomato cercospora leaf mold. Type of assay: in vivo. Conditions: in words.
Assay [9] has as its system rape sclerotinia stem rot (Sclerotinia sclerotiorum). Kind of assay: Whole-plant fungicidal test, rape sclerotinia stem rot. The class given is in vivo. Particulars: in words.
The test system of assay [10] is apple alternaria rot (valsa mali). Kind of assay: Whole-plant fungicidal test, apple alternaria rot. Conditions: in words. The class given is in vivo.
Assay [11] has as its system diamond backmoth (Plutella xylostella). Kind of assay: Insecticidal activity, diamond backmoth, spraying. Conditions: 200 mg/L; mortality after two days.
Method: as §1, §2, §3
The subject of assay [12] is tomato late blight (Phytophthora infestans). The class given is in vivo. Particulars: in words.
The subject of assay [13] is cucumber anthracnose (Colletotrichum lagenarium). Kind of assay: Whole-plant fungicidal test, cucumber anthracnose. Type of assay: in vivo.
For assay [14], the system named is rice blast (Pyricularia oryzae). Type of assay: in vivo. Conditions: in words.
The subject of assay [15] is cucumber powdery mildew (Sphaerotheca fuliginea). Kind of assay: Whole-plant fungicidal test, cucumber powdery mildew. The class given is in vivo. Particulars: in words.
A further assay deals with wheat powdery mildew. Kind of assay: Whole-plant fungicidal test, curative activity, wheat powdery mildew. Type of assay: in vivo, Erysiphe graminis. Particulars: for inhibition at 0.39 µg/mL / inhibition at 0.78 µg/mL / inhibition at 1.56 µg/mL / inhibition at 3.125 µg/mL / inhibition at 6.25 µg/mL / inhibition at 12.5 µg/mL: Triticum aestivum, 96 h, read-out: 4 day curative activity (%) against wheat powdery mildew.

For assay [16], the system named is corn southern leaf blight (Helminthosporium maydis). The assay can be described thus: Whole-plant fungicidal test, corn southern leaf blight. The class given is in vivo. Particulars: in words. On the procedure:
Protectant and curative activity of experimental compounds are tested with whole plants. […] For the protectant method, test solution was sprayed onto potted plant. Pathogen inoculation was carried out after 24 hours then plants were hold in growth chambers containing constant temperature and moisture for effect. When untreated plant was under desirable disease severity (after 1 week approximately), assessment were carried out by visual observation. Test plant inoculated with fungus for 4 days are sprayed with the solution of a compound and then cultured in green house for 3-4 days. The curative activity is assessed based on the control plant's index of disease.

As for `COC(=O)N(OC)c1ccccc1COc1cc(-c2ccccc2)nn1C` [Compound 1], in assay [1] (500 mg/L), the “control against cucumber downy mildew” value is 100%.
The same measure, in the same setting: the result for `COC(=O)N(OC)c1ccccc1COc1cc(-c2ccc(SC)cc2)nn1C` [Compound 8] reads 100%.
With `COC(=O)N(OC)c1ccccc1COc1cc(-c2ccc(Cl)cc2Cl)nn1C` [Compound 10], the “control against wheat powdery mildew” value in assay [2] is 100%. Besides, in assay [1] (500 mg/L), the “control against cucumber downy mildew” value is reported as 100%.
As for `COC(=O)N(OC)c1ccccc1COc1cc(-c2ccc(Cl)cc2)nn1C(C)C` [Compound 11], the “control against cucumber downy mildew” value in assay [1] (500 mg/L) came to 90%.
As for `COC(=O)N(OC)c1ccccc1COc1cc(-c2ccc(Br)cc2)nn1C` [Compound 15], the “control of green peach aphids” value in assay [3] is 90%. The “control against cucumber downy mildew” value in assay [1] (25 mg/L) and in assay [1] (500 mg/L) was 100% in each case.
`COC(=O)N(OC)c1ccccc1COc1cc(-c2ccc(C)cc2)nn1C` [Compound 16]: in assay [2], the “control against wheat powdery mildew” value came out at 100%.
With `COC(=O)N(OC)c1ccccc1COc1cc(-c2ccccc2Cl)nn1C` [Compound 20], in assay [2], the “control against wheat powdery mildew” value came to 100%. In addition, the “control against cucumber downy mildew” value in assay [1] (25 mg/L) and in assay [1] (500 mg/L) was 100% throughout.
With `COC(=O)N(OC)c1ccccc1COc1cc(-c2ccc(Cl)nc2)nn1C` [Compound 21], in assay [4], the “control against cucumber grey mold” value is on record as 100%. Besides, the “control against wheat powdery mildew” value in [2] is reported as 100%.
As to `COC(=O)N(OC)c1ccccc1COc1c(C)c(-c2ccccc2)nn1C` [Compound 63], in [5], the “activity on cucumber scab” value is “good activity”. Moreover, the “1 day protection activity (%) against wheat powdery mildew” value in [2] (0.19 mg/L) is 55%; in assay [2] (0.39 mg/L), 75%; in assay [2] (0.78 mg/L), 95%; in assay [2] (1.56 mg/L), 100%; in assay [2] (3.125 mg/L), 100%; in [2] (6.25 mg/L), 100%. Besides, the “1 day protection activity (%) against wheat powdery mildew” value in assay [2] (12.5 mg/L) and in assay [2] (25 mg/L) was 100% throughout. In addition, the “control against wheat powdery mildew” value in [2] came out at 100%. Further, the “activity against wheat powdery mildew” value in [2] (in words) is listed as “excellent activity”. Besides, the “1 day protection activity (%) against rice sheath blight” value is on record as 55% in assay [6] (1.5625 mg/L); 60% in assay [6] (3.125 mg/L); 65% in assay [6] (6.25 mg/L); 75% in assay [6] (12.5 mg/L); 80% in assay [6] (25 mg/L); 100% in assay [6] (50 mg/L). For the same compound, in assay [6] (100 mg/L), the “1 day protection activity (%) against rice sheath blight” value worked out at 100%. For the same compound, the “activity against rice sheath blight” value in [6] (in words) is on record as “excellent activity”. Further, in assay [7], the “activity against wheat head blight” value is recorded as “moderate activity”. Also, the “activity against tomato cercospora leaf mold” value in assay [8] is reported as “moderate activity”. The “activity on rape sclerotinia stem rot” value in assay [9] was “good activity”. Also, in [10], the “activity on apple alternaria rot” value was “good activity”. Further, the “control of diamond backmoth” value in assay [11] was found to be 100%. Besides, the “activity against tomato late blight” value in assay [12] is “excellent activity”. The “control against cucumber downy mildew” value in assay [1] (25 mg/L) and in assay [1] (500 mg/L) was 100% in each case. In addition, the “activity against cucumber downy mildew” value in [1] (in words) is listed as “excellent activity”. Besides, the “control against cucumber anthracnose” value in [13] (1.56 mg/L) and in assay [13] (100 mg/L) was 100% each time. The “activity against cucumber anthracnose” value in assay [13] (in words) is listed as “excellent activity”. Besides, in assay [14], the “activity against rice blast” value is listed as “excellent activity”. Besides, the “activity against cucumber powdery mildew” value in [15] is “excellent activity”. The “4 day curative activity (%) against wheat powdery mildew” value came out at 50% in the assay on wheat powdery mildew (0.39 mg/L); 80% with wheat powdery mildew (0.78 mg/L); 100% in the assay with wheat powdery mildew (1.56 mg/L); 100% in the assay with wheat powdery mildew (3.125 mg/L); 100% in the assay on wheat powdery mildew (6.25 mg/L); 100% in the assay on wheat powdery mildew (12.5 mg/L). Moreover, the “activity against corn southern leaf blight” value in assay [16] was “moderate activity”.
`COC(=O)N(OC)c1ccccc1COc1c(C)c(-c2ccc(C)cc2)nn1C` [Compound 78]: the “control against wheat powdery mildew” value in assay [2] is listed as 100%. The “control against cucumber downy mildew” value in [1] (25 mg/L) and in assay [1] (500 mg/L) was 100% in each case.
Take `COC=C(C(=O)OC)c1ccccc1-c1cc(Oc2cc(-c3ccc(Cl)cc3)nn2C(C)C)ncn1` [Compound 194]: the “control against cucumber downy mildew” value in assay [1] (500 mg/L) worked out at 100%.
As to `COC=C(C(=O)OC)c1ccccc1COc1cc(-c2cccs2)nn1C` [Compound 367], in [1] (500 mg/L), the “control against cucumber downy mildew” value was determined as 100%.
As for `CON=C(C(=O)OC)c1ccccc1COc1cc(-c2cccs2)nn1C` [Compound 391], the “control against cucumber downy mildew” value in [1] (500 mg/L) was determined as 90%.
As for `CNC(=O)C(=NOC)c1ccccc1COc1cc(-c2cccs2)nn1C` [Compound 415], the “control against cucumber downy mildew” value in assay [1] (500 mg/L) was 100%.
In the case of `CO/N=C(/C(=O)OC)c1ccccc1COc1ccccc1C` [Kresoxim methyl, reference compound], the inhibition at 0.39 µg/mL in [2] (Blumeria graminis, 24 h, 0.39 mg/L, read-out: 1 day protection activity (%) against wheat powdery mildew) was 0%; in the assay on wheat powdery mildew (0.39 mg/L), 0%. For the same compound, the inhibition at 0.78 µg/mL in assay [2] (Blumeria graminis, 24 h, 0.78 mg/L, read-out: 1 day protection activity (%) against wheat powdery mildew) came out at 15%; with wheat powdery mildew (0.78 mg/L), 0%. Moreover, the inhibition at 1.56 µg/mL was determined as 40% in [2] (Blumeria graminis, 24 h, 1.56 mg/L, read-out: 1 day protection activity (%) against wheat powdery mildew) and 10% in the assay with wheat powdery mildew (1.56 mg/L). Moreover, the inhibition at 3.125 µg/mL in [2] (Blumeria graminis, 24 h, 3.125 mg/L, read-out: 1 day protection activity (%) against wheat powdery mildew) turned out to be 70%; with wheat powdery mildew (3.125 mg/L), 15%. In addition, the inhibition at 6.25 µg/mL in assay [2] (Blumeria graminis, 24 h, 6.25 mg/L, read-out: 1 day protection activity (%) against wheat powdery mildew) was 98%; in the assay with wheat powdery mildew (6.25 mg/L), 20%. Moreover, the inhibition at 12.5 µg/mL came to 100% in [2] (Blumeria graminis, 24 h, 12.5 mg/L, read-out: 1 day protection activity (%) against wheat powdery mildew) and 100% in the assay on wheat powdery mildew (12.5 mg/L). The inhibition at 25 µg/mL in assay [2] (Blumeria graminis, 24 h, 25 mg/L, read-out: 1 day protection activity (%) against wheat powdery mildew) was found to be 100%.
With `COC(=O)N(OC)c1ccccc1COc1ccn(-c2ccc(Cl)cc2)n1` [pyraclostrobin], the inhibition at 0.39 µg/mL in the assay with wheat powdery mildew (0.39 mg/L) is 0%. In addition, the inhibition at 0.78 µg/mL in the assay on wheat powdery mildew (0.78 mg/L) came to 25%. Besides, the inhibition at 1.56 µg/mL in the assay on wheat powdery mildew (1.56 mg/L) came to 60%. The inhibition at 3.125 µg/mL in the assay on wheat powdery mildew (3.125 mg/L) stood at 85%. Moreover, the inhibition at 6.25 µg/mL in the assay on wheat powdery mildew (6.25 mg/L) was 100%. Further, the inhibition at 12.5 µg/mL in the assay on wheat powdery mildew (12.5 mg/L) was 100%.
On to `CC(C)(C)C(O)(CCc1ccc(Cl)cc1)Cn1cncn1` (stereo not drawn) [tebuconazole], for which the inhibition at 0.39 µg/mL in the assay with wheat powdery mildew (0.39 mg/L) was found to be 0%. For the same compound, the inhibition at 0.78 µg/mL in the assay on wheat powdery mildew (0.78 mg/L) was found to be 0%. For the same compound, the inhibition at 1.56 µg/mL in the assay with wheat powdery mildew (1.56 mg/L) came out at 15%. In addition, the inhibition at 3.125 µg/mL in the assay with wheat powdery mildew (3.125 mg/L) came to 45%. The inhibition at 6.25 µg/mL in the assay on wheat powdery mildew (6.25 mg/L) turned out to be 70%. Moreover, in the assay on wheat powdery mildew (12.5 mg/L), the inhibition at 12.5 µg/mL was 85%.
In the case of `COC(=O)NC(=S)Nc1ccccc1NC(=S)NC(=O)OC` [triophanate-methyl, reference compound], the “1 day protection activity (%) against rice sheath blight” value in assay [6] (1.5625 mg/L) is listed as 0%; in assay [6] (3.125 mg/L), 0%; in assay [6] (6.25 mg/L), 0%; in [6] (12.5 mg/L), 0%; in [6] (25 mg/L), 20%; in assay [6] (50 mg/L) it was 55%. Also, in [6] (100 mg/L), the “1 day protection activity (%) against rice sheath blight” value stood at 75%.
